The source of these data is ChEMBL document CHEMBL1138927, “Neurotrophic peptide aldehydes: solid phase synthesis of fellutamide B and a simplified analog” (Bioorg Med Chem Lett, 2006).

Structures are written as SMILES. The source made the active and inactive calls. The rule behind the calls is not given here. Residues, ends and D or L forms follow the SMILES beside them. *: point of attachment. Octanoyl = CCCCCCCC(=O)*

Common to all, as to assay type: functional, cell-based
Experiment [1] deals with LM. Description: Induction of NGF secretion in LM cells at 50 uM after 24 hrs. The settings on record: Mus musculus.
The test system of another experiment is KB. The experiment in a line: Cytotoxicity against human KB cell line by [3H] thymidine incorporation assay.
The subject of another experiment is PC-12. The experiment in a line: Cytotoxicity against rat PC12 cell line by [3H] thymidine incorporation assay. The conditions noted are these: PC-12, 24 h.
In experiment [2] the test system is LM. The experiment in a line: Cytotoxicity against mouse LM cell line by [3H] thymidine incorporation assay.

As to `CCCCCCCCC[C@@H](O)CC(=O)N[C@@H](CC(N)=O)C(=O)N[C@@H](CCC(N)=O)C(=O)N[C@H](C=O)CC(C)C` [FELLUTAMIDE B], the outcome in the experiment on LM [1] was Active. Further, the IC50 in the experiment with KB was found to be 0.349 µM; in the experiment with PC-12, 0.437 µM; in the experiment on LM [2], 0.482 µM.
On the same counts, the results for `CCCCCCCC(=O)N[C@@H](CC(N)=O)C(=O)N[C@@H](CCC(N)=O)C(=O)N[C@H](C=O)CC(C)C` (Octanoyl-Asn-Gln-Leu-aldehyde) are “Active”, 4.83 µM, 1.67 µM and 3.33 µM.
